Reference: the supplement of paper PMC10307832

Key:
Experiment in all cases: relative viability (nuclei count vs DMSO), 5 days (fraction); higher = more cells survive
[1] = compound: CC1=C(C(=O)N2C=CSC2=N1)CCN3CCC(=C(C4=CC=CC=C4)C5=CC=C(C=C5)F)CC3 + C[C@]1(O)C[C@@H](c2nc(-c3ccc4ccc(-c5ccccc5)nc4c3)c3c(N)nccn32)C1 [Linsitinib] (partner 1 µM)
In short: (§1)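 Cells from lung cancer lines were seeded into 1536-well plates and, one day later, dosed by pin tool. Treatments were either a single drug or a fixed dose of an anchor drug with five library-drug doses (not always all listed) in √10 steps. After 5 days, nuclei were stained in a one-step fixation (final 0.05% Triton X-100, 1% formaldehyde, 1 ug/ml Hoechst) and counted on 4× images, and relative viability is the treated-to-vehicle nuclei ratio, as the median of duplicate plates.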

[2] = compound: CC1=C(C(=O)N2C=CSC2=N1)CCN3CCC(=C(C4=CC=CC=C4)C5=CC=C(C=C5)F)CC3 + O=C(CCCCCCC(=O)Nc1ccccc1)NO [Vorinostat] (partner 1 µM)
In short: as §1

[3] = compound: CC1=C(C(=O)N2C=CSC2=N1)CCN3CCC(=C(C4=CC=CC=C4)C5=CC=C(C=C5)F)CC3 + Cc1nc(NC(=O)N2CCC[C@H]2C(N)=O)sc1-c1ccnc(C(C)(C)C(F)(F)F)c1 [Alpelisib] (partner 2 µM)
In short: as §1

[4] = compound: CC1=C(C(=O)N2C=CSC2=N1)CCN3CCC(=C(C4=CC=CC=C4)C5=CC=C(C=C5)F)CC3 + CC1(C)CCC(c2ccc(Cl)cc2)=C(CN2CCN(c3ccc(C(=O)NS(=O)(=O)c4ccc(N[C@H](CCN5CCOCC5)CSc5ccccc5)c(S(=O)(=O)C(F)(F)F)c4)cc3)CC2)C1 [Navitoclax] (partner 0.5 µM)
In short: as §1

| Cell Line | relative viability ([1]; first compound 0.08 µM) | relative viability ([1]; first compound 0.253 µM) | relative viability ([1]; first compound 0.8 µM) | relative viability ([1]; first compound 2.53 µM) | relative viability ([1]; first compound 8 µM) | relative viability ([2]; first compound 0.08 µM) | relative viability ([2]; first compound 0.253 µM) | relative viability ([2]; first compound 0.8 µM) | relative viability ([2]; first compound 2.53 µM) | relative viability ([2]; first compound 8 µM) | relative viability ([3]; first compound 0.08 µM) | relative viability ([3]; first compound 0.253 µM) | relative viability ([3]; first compound 0.8 µM) | relative viability ([3]; first compound 2.53 µM) | relative viability ([3]; first compound 8 µM) | relative viability ([4]; first compound 0.08 µM) | relative viability ([4]; first compound 0.253 µM) | relative viability ([4]; first compound 0.8 µM) | relative viability ([4]; first compound 2.53 µM) | relative viability ([4]; first compound 8 µM) |
| --- | --- | --- | --- | --- | --- | --- | --- | --- | --- | --- | --- | --- | --- | --- | --- | --- | --- | --- | --- | --- |
| HCC-15 | 0.931 | 0.931 | 0.942 | 1.04 | 0.744 | 0.927 | 0.96 | 0.869 | 0.788 | 0.606 | 0.875 | 0.958 | 0.972 | 1.04 | 0.69 | 0.697 | 0.601 | 0.762 | 0.791 | 0.528 |
| SW 1573 | 0.843 | 0.804 | 0.795 | 0.835 | 0.721 | 0.808 | 0.697 | 1.01 | 0.795 | 0.423 | 0.829 | 0.829 | 0.739 | 0.657 | 0.469 | 0.777 | 1.02 | 1.11 | 1.15 | 0.409 |
| LXF-289 | 0.948 | 1.1 | 0.989 | 0.96 | 0.83 | 0.527 | 0.813 | 0.75 | 0.738 | 0.613 | 1.06 | 1.07 | 1.08 | 1.03 | 0.917 | 0.917 | 1.19 | 0.947 | 0.97 | 0.816 |
| NCI-H1355 | 0.775 | 0.876 | 0.844 | 0.856 | 0.588 | 0.588 | 0.602 | 0.6 | 0.611 | 0.529 | 0.79 | 0.948 | 0.854 | 0.899 | 0.623 | 0.976 | 0.984 | 0.996 | 1.09 | 0.787 |
| NCI-H1755 | 1.04 | 0.98 | 0.973 | 0.981 | 0.779 | 0.704 | 0.71 | 0.789 | 0.759 | 0.571 | 0.807 | 0.856 | 0.994 | 1.07 | 0.69 | 0.932 | 1.02 | 1.1 | 1.02 | 0.56 |
| LCLC-97TM1 | 0.185 | 0.161 | 0.19 | 0.197 | 0.164 | 0.521 | 0.831 | 0.754 | 0.734 | 0.415 | 0.184 | 0.265 | 0.226 | 0.304 | 0.148 | 0.263 | 0.306 | 0.347 | 0.537 | 0.249 |
| NCI-H3122 | 1.04 | 1.05 | 0.998 | 1.19 | 1.02 | 0.875 | 1.1 | 1.08 | 0.987 | 0.516 | 0.794 | 0.701 | 0.781 | 0.915 | 0.752 | 1.11 | 1.04 | 1.03 | 1.04 | 0.965 |
